Assays:
[1] = target: T1, NS3 genotype 3a protease (UniProt Q81258); assay: Ki determination, NS3 protease genotype 3a (fluorogenic depsipeptide substrate); format: biochemical, hepatitis C virus; details: NS3 protease domain genotype 3a, NS4A peptide
T1 construct: Purified NS3 protease domain (amino acids 1-181) of the genotype 1b and 3a virus were generated as above; fused on or other part: N-terminal hexahistidine tag with an rTEV protease cleavage site (vector p28-N6H-Tev-NS3(181)3)
T1 sequence (Q81258 1033-1663): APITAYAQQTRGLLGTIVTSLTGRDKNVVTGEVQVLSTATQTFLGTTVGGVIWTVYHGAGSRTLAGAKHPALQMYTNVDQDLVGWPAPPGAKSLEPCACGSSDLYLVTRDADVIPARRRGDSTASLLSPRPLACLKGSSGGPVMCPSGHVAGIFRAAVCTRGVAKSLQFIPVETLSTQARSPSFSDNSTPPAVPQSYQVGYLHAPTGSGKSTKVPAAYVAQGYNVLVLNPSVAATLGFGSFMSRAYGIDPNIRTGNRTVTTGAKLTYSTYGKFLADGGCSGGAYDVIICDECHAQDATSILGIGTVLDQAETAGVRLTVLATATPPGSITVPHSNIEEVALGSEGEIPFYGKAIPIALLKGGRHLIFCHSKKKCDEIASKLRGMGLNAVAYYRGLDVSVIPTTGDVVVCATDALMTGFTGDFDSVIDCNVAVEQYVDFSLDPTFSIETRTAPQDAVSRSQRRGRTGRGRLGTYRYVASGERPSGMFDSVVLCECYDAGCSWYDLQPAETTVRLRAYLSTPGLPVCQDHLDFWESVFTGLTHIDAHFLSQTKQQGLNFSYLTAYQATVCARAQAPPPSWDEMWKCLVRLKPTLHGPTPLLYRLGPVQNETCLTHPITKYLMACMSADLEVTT
Source text: Ki Determination for Genotypes 1b and 3a NS3 Protease.
Purified NS3 protease domain (amino acids 1-181) of the genotype 1b and 3a virus were generated as above. The internally quenched fluorogenic depsipeptide substrate Ac-DED(Edans)-EEAbuψ[COO]ASK(Dabcyl)-NH2 and a synthetic peptide containing the hydrophobic core residues of the NS4A protein cofactor ([…]; NS4A peptide) were obtained from Anaspec, Inc. (San Jose, Calif.). Other chemicals and biochemicals were of reagent grade or better and were purchased from standard suppliers.
Reactions were run at room temperature in buffer consisting of 50 mM HEPES, 40% glycerol, 0.05% Triton X-100, 10 mM DTT, and 10% DMSO. The final assay solutions contained 50 pM NS3 genotype 1b protease or 200 pM genotype 3a protease, 20 μM NS4A peptide, and 4 μM substrate (genotype 1b) or 2 μM substrate (genotype 3a). Inhibitor concentrations varied from 100 nM to 5 pM in 3-fold dilutions, and no-inhibitor controls were included.
Compound dilutions were made in DMSO at 20× final concentration. Reaction mixtures were prepared in 96-well assay plates. A solution of enzyme and NS4A peptide in assay buffer (25 μL volume with both reagents at 4× final concentration) was mixed with 45 μL assay buffer and 5 μL of either inhibitor or DMSO, and pre-incubated at room temperature for 1 hour. The reaction was started by addition of 25 μL substrate solution at 4× final concentration. Plates were mixed vigorously for 5-10 seconds and reactions were allowed to proceed for 90 minutes. Fluorescence was measured every 30 s between 90 and 120 minutes reaction time using a Tecan InfiniTe M1000 or PerkinElmer Envision multimode plate reader with an excitation wavelength of 340 nm and an emission wavelength of 490 nm.
Rates were calculated from the progress curves at steady state, in the time frame of 90-120 minutes after addition of substrate. To determine the Ki, rates were plotted as a function of inhibitor concentration, and the data were fit with equation 1 (Morrison, J. F., Biochimica et Biophysica Acta 1969, 185, 269-286) to calculate Ki^app using GraphPad Prism 5. Active fraction of enzyme was determined by active site titration with known potent inhibitors. Ki was calculated from Ki^app/(1+[[S]/Km]).

[2] = system: genotype 1a stable HCV replicon (H77) in Huh-7-derived cells; assay: Stable subgenomic HCV replicon, genotype 1a, Renilla luciferase; format: cell-based; details: Hepatitis C virus, stable replicon genotype 1a, 72 h, read-out: EC50 1A RLUC
Experimental: Antiviral potency (EC50) was determined in both stable subgenomic HCV replicon cell lines and transient-transfected HCV replicon cells. The term half maximal effective concentration (EC50) refers to the concentration of a drug which induces a response halfway between the baseline and maximum after the exposure time specified below.
Stable subgenomic HCV replicons for genotype 1a, 1b, 2a, 3a, and 4a were established in Huh-7-derived cells as described by Lohmann et al (Lohmann V, Korner F, Koch J, et al Replication of subgenomic hepatitis C virus RNAs in a hepatoma cell line. Science 1999; 285:119-3). Each stable cell line contains a bicistronic HCV replicon that encodes a humanized Renilla luciferase (hRLuc) reporter gene fused to a selectable neomycin-resistance gene, followed by an EMCV IRES and the NS3-NS5B coding region of HCV. […] Luciferase activity was measured as a marker for intracellular HCV replication levels.
The genotype 1a stable replicon was derived from the H77 HCV strain and contained adaptive mutations P1496L and S2204I. The genotype 1b stable replicon was derived from the Con1 HCV strain and contained adaptive mutations E1202G, T1280I, and K1846T. […] The genotype 3a stable replicon was derived from the S52 HCV strain and contained adaptive mutations P1121 L, A1198T and S2210I (equivalent to S2204I in genotype 1). The genotype 4a stable replicon was derived from the ED43 HCV strain and contained adaptive mutations Q1691R and S2204I. All replicon cell lines were propagated in Huh-7-derived cells and maintained in Dulbecco's modified Eagle's Medium (DMEM) supplemented with 10% fetal bovine serum (FBS) and 0.5 mg/ml G418.
To perform EC50 assays, cells from each HCV replicon were dispensed into 384-well plates. Compounds were dissolved in DMSO at a concentration of 10 mM and diluted in DMSO using an automated pipetting instrument. Three-fold serially diluted compounds were directly added to the cells using an automated instrument. DMSO was used as a negative (solvent; no inhibition) control, and a combination of three HCV inhibitors including a protease inhibitor; an NS5A inhibitor and a nucleoside inhibitor was used at concentrations >100×EC50 as a positive control (100% inhibition). Seventy-two hours later, cells were lysed and Renilla luciferase activity were quantified as recommended by the manufacturer (Promega-Madison, Wis.). Non-linear regression was performed to calculate […], values.

Compound: COc1ccc2cc3c(nc2c1)O[C@@H]1C[C@@H](C(=O)N[C@]2(C(=O)NS(=O)(=O)C4CC4)C[C@H]2C(F)F)N(C1)C(=O)[C@H](C(C)(C)C)NC(=O)O[C@@H]1C[C@@H]2C[C@@H]2[C@H]1CCCCC3 [Example 21, (1aS,2aR,6S,9S,11R,23aR,23bS)-6-tert-butyl-N-[(1R,2R)-1-[(cyclopropylsulfonyl)carbamoyl]-2-(difluoromethyl)cyclopropyl]-15-methoxy-4,7-dioxo-1a,2,2a,4,5,6,7,10,11,19,20,21,22,23,23a,23b-hexadecahydro-1H,9H-8,11-methanocyclopropa[4′,5′]cyclopenta[1′,2′:18,19][1,10,3,6]dioxadiazacyclononadecino[11,12-b]quinoline-9-carboxamide]
- Ki [1]: 0.1 nM
- EC50 [2]: 1.6 nM

Compound: CC(C)(C)[C@@H]1NC(=O)O[C@@H]2C[C@@H]3C[C@@H]3[C@H]2CCCCCc2nc3ccc(Cl)cc3nc2O[C@@H]2C[C@@H](C(=O)N[C@]3(C(=O)NS(=O)(=O)C4CC4)C[C@H]3C(F)F)N(C2)C1=O [Example 19, (1aS,2aR,6S,9S,11R,23aR,23bS)-6-tert-butyl-15-chloro-N-[(1R,2R)-1-[(cyclopropylsulfonyl)carbamoyl]-2-(difluoromethyl)cyclopropyl]-4,7-dioxo-1a,2,2a,4,5,6,7,10,11,19,20,21,22,23,23a, 23b-hexadecahydro-1H,9H-8,11-methanocyclopropa[4′,5′]cyclopenta[1′,2′:18,19][1,10,3,6]dioxadiazacyclononadecino[11,12-b]quinoxaline-9-carboxamide]
- Ki [1]: 0.06 nM
- EC50 [2]: 1.4 nM

Compound: CC(C)(C)[C@@H]1NC(=O)O[C@@H]2C[C@@H]3C[C@@H]3[C@H]2CCCCC(F)(F)c2nc3ccccc3nc2O[C@@H]2C[C@@H](C(=O)N[C@]3(C(=O)NS(=O)(=O)C4CC4)C[C@H]3C(F)F)N(C2)C1=O [Example 18]
- Ki [1]: 0.02 nM
- EC50 [2]: 4.8 nM

Compound: COc1ccc2nc3c(nc2c1)O[C@@H]1C[C@@H](C(=O)N[C@]2(C(=O)NS(=O)(=O)C4(C)CC4)C[C@H]2C(F)F)N(C1)C(=O)[C@H](C(C)(C)C)NC(=O)O[C@@H]1C[C@@H]2C[C@@H]2[C@H]1CCCCC3(F)F [Example 10, (1aS,2aR,6S,9S,11R,23aR,23bS)-6-tert-butyl-N-[(1R,2R)-2-(difluoromethyl)-1-{[(1-methylcyclopropyl)sulfonyl]carbamoyl}cyclopropyl]-19,19-difluoro-15-methoxy-4,7-dioxo-1a,2,2a,4,5,6,7,10,11,19,20,21,22,23,23a,23b-hexadecahydro-1H,9H-8,11-methanocyclopropa [4′,5′]cyclopenta[1′,2′:18,19][1,10,3,6]dioxadiazacyclononadecino[11,12-b]quinoxaline-9-carboxamide]
- Ki [1]: 0.02 nM
- EC50 [2]: 1.6 nM

Compound: CC(C)(C)[C@@H]1NC(=O)O[C@@H]2C[C@@H]3C[C@@H]3[C@H]2CCCCC(F)(F)c2nc3ccccc3nc2O[C@@H]2C[C@@H](C(=O)N[C@]3(C(=O)NS(=O)(=O)C4(C)CC4)C[C@H]3C(F)F)N(C2)C1=O [Example 17]
- Ki [1]: 0.02 nM
- EC50 [2]: 5.8 nM

Compound: COc1ccc2nc3c(nc2c1)O[C@@H]1C[C@@H](C(=O)N[C@]2(C(=O)NS(=O)(=O)C4(C)CC4)C[C@H]2C(F)F)N(C1)C(=O)[C@H](C(C)(C)C)NC(=O)O[C@@H]1C[C@@H]2C[C@@H]2[C@H]1CCCCC3 [Example 2, (1aS,2aR,6S,9S,11R,23aR,23bS)-6-tert-butyl-N-[(1R,2R)-2-(difluoromethyl)-1-{[(1-methylcyclopropyl)sulfonyl]carbamoyl}cyclopropyl]-15-methoxy-4,7-dioxo-1a,2,2a,4,5,6,7,10,11,19,20,21,22,23,23a,23b-hexadecahydro-1H,9H-8,11-methanocyclopropa[4′,5′]cyclopenta[1′,2′18,19][1,10,3,6]dioxadiazacyclononadecino[11,12-b]quinoxaline-9-carboxamide]
- Ki [1]: 0.04 nM
- EC50 [2]: 1.1 nM

Compound: CC(C)(C)[C@@H]1NC(=O)O[C@@H]2C[C@@H]3C[C@@H]3[C@H]2CCCCC(F)(F)c2nc3ccc(OC(F)F)cc3nc2O[C@@H]2C[C@@H](C(=O)N[C@]3(C(=O)NS(=O)(=O)C4CC4)C[C@H]3C(F)F)N(C2)C1=O [Example 16, (1aS,2aR,6S,9S,11R,23aR,23bS)-6-tert-butyl-N-[(1R,2R)-1-[(cyclopropylsulfonyl)carbamoyl]-2-(difluoromethyl)cyclopropyl]-15-(difluoromethoxy)-19,19-difluoro-4,7-dioxo-1a,2,2a,4,5,6,7,10,11,19,20,21,22,23,23a,23b-hexadecahydro-1H,9H-8,11-methanocyclopropa[4′,5′]cyclopenta [1′,2′:18,19][1,10,3,6]dioxadiazacyclononadecino[11,12-b]quinoxaline-9-carboxamide]
- Ki [1]: 0.13 nM
- EC50 [2]: 3.8 nM

Compound: CC(C)(C)[C@@H]1NC(=O)O[C@@H]2C[C@@H]3C[C@@H]3[C@H]2CCCCCc2nc3ccc(F)cc3nc2O[C@@H]2C[C@@H](C(=O)N[C@]3(C(=O)NS(=O)(=O)C4CC4)C[C@H]3C(F)F)N(C2)C1=O [Example 12, (1aS,2aR,6S,9S,11R,23aR,23bS)-6-tert-butyl-N-[(1R,2R)-1-[(cyclopropylsulfonyl)carbamoyl]-2-(difluoromethyl)cyclopropyl]-15-fluoro-4,7-dioxo-1a,2,2a,4,5,6,7,10,11,19,20,21,22,23,23a,23b-hexadecahydro-1H,9H-8,11-methanocyclopropa[4′,5′]cyclopenta[1′,2′:18,19][1,10,3,6]dioxadiazacyclononadecino[11,12-b]quinoxaline-9-carboxamide]
- Ki [1]: 0.09 nM
- EC50 [2]: 1.7 nM

Reference: patent US9617310B2 (priority 2013, dated 2017)
